Data from patent US7842681B2, “Treatment of myeoproliferative diseases” (Abbott Laboratories, priority 2006, dated 2010).

Key:
circulating platelets [1] = test: Circulating platelet count in dogs after a single oral dose; type: in vivo; settings: male beagle dogs, one 5 mg/kg oral dose (FIG. 1, FIG. 2)
Description: (§1) The effect of Bcl-2 protein inhibitors on circulating platelets can be determined by administration of test compounds, preferably orally or intravenously, to an animal and analyzing a blood sample and determining the number of platelets by techniques well-known in the art. Preferably, blood samples are obtained from about 2 hours to about 48 hours after compound administration.
Male beagle dogs (n=3/group; 8-12 kg) were treated with a single dose of 5 mg/kg N-(4-(4-((2-(4-chlorophenyl)-4,4-dimethylcyclohex-1-en-1-yl)methyl)piperazin-1-yl)benzoyl)-4-(((1R)-3-(morpholin-4-yl)-1-((phenylsulfanyl)methyl)propyl)amino)-3-((trifluoromethyl)sulfonyl)benzenesulfonamide in 10:30:60 ethanol/phosal 50 PG/PEG 400 (by weight) by oral gavage. Blood samples were collected at baseline and at the indicated time points from the jugular vein, treated with EDTA and the whole blood analyzed for platelet counts on a Cell-Dyn 3700 (Abbott Laboratories).
Male beagle dogs (n=3/group; 8-12 kg) were treated with a single dose of 5 mg/kg 3-((chloro(difluoro)methyl)sulfonyl)-N-(4-(4-((2-(4-chlorophenyl)-4,4-dimethylcyclohex-1-en-1-yl)methyl)piperazin-1-yl)benzoyl)-4-(((1R)-3-(morpholin-4-yl)-1-((phenylsulfanyl)methyl)propyl)amino)benzenesulfonamide in 10:90 DMSO/PEG 400 (by volume) by oral gavage. […]

Bcl-2 = test: Binding to Bcl-2 protein
Description: Binding affinity of compounds to Bcl-2 protein is indicia of their inhibition of the activity of this protein. To determine the binding affinity of compounds to Bcl-2, representative examples were diluted in DMSO to concentrations between […] and added to each well of a 96-well microtiter plate. A mixture comprising 125 µL per well of assay buffer (20 mM phosphate buffer (pH 7.4), 1 mM EDTA, 50 mM NaCl, 0.05% PF-68), 10 nM of Bcl-2 protein (prepared according to the procedure described in PNAS 2001, 98, 3012-3017), 1 nM fluorescein-labeled BAX peptide (prepared in-house) and the DMSO solution of the representative example was shaken for 2 minutes and placed in a LJL Analyst (LJL Bio Systems, CA. Polarization was measured at room temperature using a continuous Fluorescein lamp (excitation 485 nm, emission 530 nm). Percentage of inhibition was determined by (1-((mP value of well-negative control)/range))×100%.

Bcl-w = target: T1, Bcl-w (Homo sapiens, UniProt Q92843); test: Binding to Bcl-w
T1 sequence (Q92843 1-193): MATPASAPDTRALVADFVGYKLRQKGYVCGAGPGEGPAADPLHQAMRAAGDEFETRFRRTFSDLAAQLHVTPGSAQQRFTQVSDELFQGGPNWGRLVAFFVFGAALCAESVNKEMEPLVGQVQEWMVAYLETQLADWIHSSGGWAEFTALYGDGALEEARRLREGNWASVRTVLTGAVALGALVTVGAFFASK

Bcl-XL = target: T2, Bcl-XL (Homo sapiens, UniProt Q07817); test: Binding to Bcl-XL protein
T2 construct: made in house
Description: Binding affinity of compounds to Bcl-XL protein is indicia of their inhibition of the activity of this protein. To determine the binding affinity of compounds to Bcl-XL protein, representative examples were diluted in DMSO to concentrations between 100 μM and 1 μM and added to each well of a 96-well microtiter plate. A mixture comprising 125 μL per well of assay buffer (20 mM phosphate buffer (pH 7.4), 1 mM EDTA, 50 mM NaCl, 0.05% PF-68), 6 nM of Bcl-XL protein (prepared as described in Science 1997, 275, 983-986), 1 nM fluorescein-labeled BAD peptide (prepared in-house) and the DMSO solution of the compound was shaken for 2 minutes and placed in a LJL Analyst (LJL Bio Systems, CA). A negative control (DMSO, 15 nM BAD peptide, assay buffer) and a positive control (DMSO, 1 nM BAD peptide, 6 nM Bcl-XL, assay buffer) were used to determine the range of the assay. Polarization was measured at room temperature using a continuous Fluorescein lamp (excitation 485 nm, emission 530 nm). Percentage of inhibition was determined by (1-((mP value of well-negative control)/range))×100%.

human platelets = test: Viability of human platelets; type: cell-based
platelets = test: Activation of apoptotic processes in platelets; type: cell-based, dog and human
isolated platelets = test: Aggregation of isolated platelets; type: cell-based
circulating platelets [2] = test: Circulating platelet count in dogs on multiple oral daily dosing; type: in vivo; settings: male beagle dogs, once daily oral gavage, 2 mg/kg days 2-7, 6 mg/kg days 8-15 (FIG. 5)
Description: as §1
Male beagle dogs (n=3/group; 8-12 kg) were treated once daily with N-(4-(4-((2-(4-chlorophenyl)-5,5-dimethyl-1-cyclohex-1-en-1-yl)methyl)piperazin-1-yl)benzoyl)-4-(((1R)-3-(morpholin-4-yl)-1-((phenylsulfanyl)methyl)propyl)amino)-3-((trifluoromethyl)sulfonyl)benzenesulfonamide in 10:90 DMSO/PEG 400 (by volume) by oral gavage at a dose of 2 mg/kg on days 2-7 and at a dose of 6 mg/kg on days 8-15 of the study. Blood samples were collected at baseline and 6 hours post dosing on days 2-5, 8-12 and day 15 from the jugular vein, treated with EDTA and the whole blood analyzed for platelet counts on a Cell-Dyn 3700 (Abbott Laboratories). Percent starting platelet counts (PC) were calculated using the following equation. [1−(PCt=0−PCt=6)/PCt=0]×100%.

dog platelets = test: Viability of dog platelets; type: cell-based

T2 sequence (Q07817 whole entry): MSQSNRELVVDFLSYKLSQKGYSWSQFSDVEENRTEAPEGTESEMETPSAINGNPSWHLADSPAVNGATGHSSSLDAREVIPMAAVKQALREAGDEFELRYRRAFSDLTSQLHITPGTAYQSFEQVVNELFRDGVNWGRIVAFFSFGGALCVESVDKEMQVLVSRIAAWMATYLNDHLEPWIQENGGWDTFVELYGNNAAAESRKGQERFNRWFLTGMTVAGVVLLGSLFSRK

SMILES	circulating platelet count (circulating platelets [1])	binding to Bcl-2 (Bcl-2)	binding to Bcl-w (Bcl-w)	binding to Bcl-XL (Bcl-XL)	viability of platelets (human platelets)	PS (phosphotidyl serine) externalization (platelets)	caspase 3 activation (platelets)	cytochrome c release (platelets)	aggregation of isolated platelets (isolated platelets)	circulating platelet count, multiple oral dosing (circulating platelets [2])	viability of platelets (dog platelets)
CC1(C)CCC(CN2CCN(c3ccc(C(=O)NS(=O)(=O)c4ccc(N[C@H](CCN5CCOCC5)CSc5ccccc5)c(S(=O)(=O)C(F)(F)F)c4)cc3)CC2)=C(c2ccc(Cl)cc2)C1 [EXAMPLE 6, N-(4-(4-((2-(4-chlorophenyl)-4,4-dimethylcyclohex-1-en-1-yl)methyl)piperazin-1-yl)benzoyl)-4-(((1R)-3-(morpholin-4-yl)-1-((phenylsulfanyl)methyl)propyl)amino)-3-((trifluoromethyl)sulfonyl)benzenesulfonamide]	rapid reduction in circulating platelet count										
CN(C)CC[C@H](CSc1ccccc1)Nc1ccc(S(=O)(=O)NC(=O)c2ccc(N3CCN(Cc4ccccc4-c4ccc(Cl)cc4)CC3)cc2)cc1[N+](=O)[O-] [EXAMPLE 7, N-(4-(4-((4′-chloro(1,1′-biphenyl)-2-yl)methyl)piperazin-1-yl)benzoyl)-4-(((1R)-3-(dimethylamino)-1-((phenylsulfanyl)methyl)propyl)amino)-3-nitrobenzenesulfonamide]		capable of binding	capable of binding	capable of binding							
CC1(C)CCC(c2ccc(Cl)cc2)=C(CN2CCN(c3ccc(C(=O)NS(=O)(=O)c4ccc(N[C@H](CCN5CCOCC5)CSc5ccccc5)c(S(=O)(=O)C(F)(F)F)c4)cc3)CC2)C1 [EXAMPLE 2, N-(4-(4-((2-(4-chlorophenyl)-5,5-dimethyl-1-cyclohex-1-en-1-yl)methyl)piperazin-1-yl)benzoyl)-4-(((1R)-3-(morpholin-4-yl)-1-((phenylsulfanyl)methyl)propyl)amino)-3-((trifluoromethyl)sulfonyl)benzenesulfonamide]		capable of binding	capable of binding	capable of binding	reduced	activated	activated	activated	did not induce	proportionate effect	reduced
